In ChEMBL document CHEMBL1139739, “Inhibition of Tpl2 kinase and TNFalpha production with quinoline-3-carbonitriles for the treatment of rheumatoid arthritis” (Bioorg Med Chem Lett, 2006):
Each block holds one molecule with its values, some of them ahead of it. The source made the active and inactive calls. The rule behind the calls is not given here.

Columns and labels:
[1] = target: Mitogen-activated protein kinase kinase kinase 8 (Homo sapiens, UniProt P41279); test: Inhibition of Tpl2 kinase by ELISA
[2] = target: CaM kinase II (Homo sapiens) (UniProt Q13557+Q13555+Q13554+Q9UQM7); test: Inhibition of CAMK2; format: protein assay
[3] = target: Protein kinase C (PKC) (Homo sapiens) (UniProt O94806+P41743+P17252+P05129+Q05655+P05771+Q05513+Q02156+P24723+Q15139+Q04759); test: Inhibition of PKC; format: protein assay
[4] = target: Ribosomal protein S6 kinase beta-1 (Homo sapiens) (UniProt P23443); test: Inhibition of S6 kinase
[5] = target: MAP kinase-activated protein kinase 2 (Homo sapiens) (UniProt P49137); test: Inhibition of MK2
Monocyte [6] = test: Inhibition of p38 kinase phosphorylation in LPS-treated human monocytes; format: functional
Monocyte [7] = test: Inhibition of cJun phosphorylation in LPS-treated human monocytes; format: functional
Monocyte [8] = test: Inhibition of IkappaBalpha phosphorylation in LPS-treated human monocytes; format: functional
Monocyte [9] = test: Inhibition of LPS-induced TNFalpha production in human monocytes by ELISA; format: functional
Blood = test: Inhibition of LPS-induced TNFalpha production in human whole blood by ELISA; format: functional
Mus musculus [10] = test: Inhibition of LPS/D-gal-induced TNFalpha production in C57B1/6 mouse at 25 mg/kg, ip; format: functional; conditions: C57B1/6, ip, route intraperitoneal
Monocyte [11] = test: Inhibition of MK2 phosphorylation in LPS-treated human monocytes; format: functional
[12] = target: Dual specificity mitogen-activated protein kinase kinase 1 (Homo sapiens) (UniProt Q02750); test: Inhibition of MEK
[13] = target: Proto-oncogene tyrosine-protein kinase Src (Homo sapiens) (UniProt P12931); test: Inhibition of Src kinase
Mus musculus [14] = test: Inhibition of LPS/D-gal-induced TNFalpha production in C57B1/6 mouse at 50 mg/kg, ip; format: functional; conditions: C57B1/6, ip, route intraperitoneal

Mitogen-activated protein kinase kinase kinase 8, sequence (P41279 whole entry): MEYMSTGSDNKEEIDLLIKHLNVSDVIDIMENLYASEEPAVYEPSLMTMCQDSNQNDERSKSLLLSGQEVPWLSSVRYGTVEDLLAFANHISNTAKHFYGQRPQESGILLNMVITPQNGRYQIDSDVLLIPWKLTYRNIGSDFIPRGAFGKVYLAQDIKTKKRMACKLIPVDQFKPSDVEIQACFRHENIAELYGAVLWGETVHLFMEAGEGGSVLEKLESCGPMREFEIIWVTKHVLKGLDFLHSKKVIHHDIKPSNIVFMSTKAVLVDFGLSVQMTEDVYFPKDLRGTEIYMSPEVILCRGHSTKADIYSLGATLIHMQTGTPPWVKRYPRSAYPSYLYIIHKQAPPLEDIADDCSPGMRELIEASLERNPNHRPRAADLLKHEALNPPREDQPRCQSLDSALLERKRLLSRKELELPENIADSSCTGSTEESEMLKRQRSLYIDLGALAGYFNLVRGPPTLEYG
Dual specificity mitogen-activated protein kinase kinase 1 (Homo sapiens), sequence (Q02750 whole entry): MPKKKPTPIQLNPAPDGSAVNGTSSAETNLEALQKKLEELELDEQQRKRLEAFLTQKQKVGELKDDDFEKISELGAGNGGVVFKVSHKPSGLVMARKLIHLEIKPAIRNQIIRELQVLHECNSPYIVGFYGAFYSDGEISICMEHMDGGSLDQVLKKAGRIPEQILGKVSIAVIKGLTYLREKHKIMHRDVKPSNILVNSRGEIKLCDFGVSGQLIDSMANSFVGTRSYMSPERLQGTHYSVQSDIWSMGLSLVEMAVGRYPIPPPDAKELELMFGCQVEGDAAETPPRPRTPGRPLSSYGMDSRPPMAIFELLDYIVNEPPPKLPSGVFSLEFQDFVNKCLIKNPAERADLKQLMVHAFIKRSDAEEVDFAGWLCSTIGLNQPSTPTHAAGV
Ribosomal protein S6 kinase beta-1 (Homo sapiens), sequence (P23443 whole entry, looked up): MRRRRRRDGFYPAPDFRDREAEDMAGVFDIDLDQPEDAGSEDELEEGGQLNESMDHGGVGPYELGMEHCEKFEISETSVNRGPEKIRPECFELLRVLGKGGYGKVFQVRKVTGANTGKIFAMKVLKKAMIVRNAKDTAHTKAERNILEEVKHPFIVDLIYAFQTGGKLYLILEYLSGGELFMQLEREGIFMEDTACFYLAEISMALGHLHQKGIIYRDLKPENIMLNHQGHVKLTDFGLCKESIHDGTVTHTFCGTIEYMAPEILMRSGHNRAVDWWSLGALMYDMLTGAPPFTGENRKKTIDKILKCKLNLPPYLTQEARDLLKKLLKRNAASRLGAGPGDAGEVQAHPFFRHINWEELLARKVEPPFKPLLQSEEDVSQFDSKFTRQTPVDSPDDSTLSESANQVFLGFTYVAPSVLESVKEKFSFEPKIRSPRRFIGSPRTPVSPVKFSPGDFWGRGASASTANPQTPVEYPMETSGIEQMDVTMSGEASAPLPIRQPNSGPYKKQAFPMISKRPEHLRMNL
MAP kinase-activated protein kinase 2 (Homo sapiens), sequence (P49137 whole entry, looked up): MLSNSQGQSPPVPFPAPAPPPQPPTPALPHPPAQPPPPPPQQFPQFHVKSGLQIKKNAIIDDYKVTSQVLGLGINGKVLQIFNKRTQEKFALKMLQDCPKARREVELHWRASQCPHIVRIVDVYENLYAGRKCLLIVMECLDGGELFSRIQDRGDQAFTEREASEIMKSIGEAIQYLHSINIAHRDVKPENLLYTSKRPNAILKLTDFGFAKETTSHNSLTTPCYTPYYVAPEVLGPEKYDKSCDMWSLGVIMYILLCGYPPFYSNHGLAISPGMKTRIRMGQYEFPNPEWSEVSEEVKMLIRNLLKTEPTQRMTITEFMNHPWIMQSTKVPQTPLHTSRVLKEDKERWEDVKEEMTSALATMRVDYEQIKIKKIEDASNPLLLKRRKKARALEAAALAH
Proto-oncogene tyrosine-protein kinase Src (Homo sapiens), sequence (P12931 2-536 limits assumed): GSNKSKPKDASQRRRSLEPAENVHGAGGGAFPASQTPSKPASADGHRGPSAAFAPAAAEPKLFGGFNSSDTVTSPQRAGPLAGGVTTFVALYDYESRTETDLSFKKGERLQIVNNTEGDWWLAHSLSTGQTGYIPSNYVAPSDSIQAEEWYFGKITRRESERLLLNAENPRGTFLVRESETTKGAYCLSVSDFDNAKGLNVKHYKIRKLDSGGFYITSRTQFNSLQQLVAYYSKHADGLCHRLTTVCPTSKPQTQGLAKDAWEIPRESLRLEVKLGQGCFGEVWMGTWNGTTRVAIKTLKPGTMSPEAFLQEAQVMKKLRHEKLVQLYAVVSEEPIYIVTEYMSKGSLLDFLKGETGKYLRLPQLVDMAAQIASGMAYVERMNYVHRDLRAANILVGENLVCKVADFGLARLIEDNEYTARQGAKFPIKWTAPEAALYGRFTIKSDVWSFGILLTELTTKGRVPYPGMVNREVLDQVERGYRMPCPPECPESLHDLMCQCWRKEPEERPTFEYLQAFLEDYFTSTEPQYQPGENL

IC50 [1]: 210 nM
SMILES: N#Cc1cnc2ccc(NCc3ccccc3)cc2c1Nc1ccc(F)c(Cl)c1

Activity [2]: inactive | Inhibition [3]: > 10 µM | Inhibition [4]: > 10 µM | Activity [5]: inactive | IC50 [12]: 2400 nM | Activity [13]: inactive
SMILES: N#Cc1cnc2ccc(NCc3c[nH]cn3)cc2c1Nc1ccc(F)c(Cl)c1
Inhibition (Monocyte [6]): 2.11 µM | Inhibition (Monocyte [7]): 5 µM | Inhibition (Monocyte [8]): >5 µM | inhibitory concentration (Monocyte [9]): 0.46 µM | inhibitory concentration (Blood): 3.3 µM | inhibition in vivo at 25 mg/kg (Mus musculus [10]): 70% | Inhibition (Monocyte [11]): >5 µM

IC50 [1]: 110 nM
SMILES: N#Cc1cnc2ccc(NCc3ccc(S(N)(=O)=O)cc3)cc2c1Nc1ccc(F)c(Cl)c1

IC50 [1]: > 10000 nM
SMILES: N#Cc1cnc2ccc(NCCN3CCOCC3)cc2c1Sc1ccc(F)c(Cl)c1

SMILES: N#Cc1cnc2ccc(NCc3nccs3)cc2c1Nc1ccc(F)c(Cl)c1
inhibitory concentration (Monocyte [9]): 0.6 µM | inhibitory concentration (Blood): >20 µM

IC50 [1]: > 40000 nM
SMILES: N#Cc1cnc2cc(OC(F)(F)F)c(NCc3cnc[nH]3)cc2c1Nc1ccc(F)c(Cl)c1

IC50 [1]: 60 nM
SMILES: CC(Nc1ccc2ncc(C#N)c(Nc3ccc(F)c(Cl)c3)c2c1)c1ccccn1 (stereo not drawn)

IC50 [1]: > 40000 nM
SMILES: N#Cc1cnc2ccc(NCCN3CCOCC3)cc2c1Oc1ccc(F)c(Cl)c1

IC50 [1]: 180 nM
SMILES: CCN1CCC[C@H]1CNc1ccc2ncc(C#N)c(Nc3ccc(F)c(Cl)c3)c2c1

IC50 [1]: 11 nM
SMILES: N#Cc1cnc2ccc(NCc3cccc[n+]3[O-])cc2c1Nc1ccc(F)c(Cl)c1
inhibitory concentration (Monocyte [9]): 1.7 µM | inhibitory concentration (Blood): 7.8 µM | inhibition in vivo at 50 mg/kg (Mus musculus [14]): 54%

SMILES: Cc1c(CNc2ccc3ncc(C#N)c(Nc4ccc(F)c(Cl)c4)c3c2)ncn1C
inhibitory concentration (Monocyte [9]): 0.4 µM | inhibitory concentration (Blood): 15.8 µM | IC50 [1]: 3 nM

IC50 [1]: 100 nM
SMILES: N#Cc1cccc(CNc2ccc3ncc(C#N)c(Nc4ccc(F)c(Cl)c4)c3c2)c1

IC50 [1]: 7000 nM
SMILES: CCN1CCC[C@@H]1CNc1ccc2ncc(C#N)c(Nc3ccc(F)c(Cl)c3)c2c1

IC50 [1]: > 40000 nM
SMILES: CC(C)Oc1cc2ncc(C#N)c(Nc3ccc(F)c(Cl)c3)c2cc1NCc1cnc[nH]1

IC50 [1]: 11500 nM
SMILES: N#Cc1cnc2ccc(NS(=O)(=O)c3ccccc3)cc2c1Nc1ccc(F)c(Cl)c1

IC50 [1]: > 40000 nM
SMILES: N#Cc1c(Nc2ccc(F)c(Cl)c2)c2cc(NCc3cnc[nH]3)ccc2[nH]c1=O

IC50 [1]: 2200 nM
SMILES: N#Cc1cnc2ccc(NCC3CCCO3)cc2c1Nc1ccc(F)c(Cl)c1 (stereo not drawn)

IC50 [1]: 19000 nM
SMILES: Cc1nc2ccc(NCc3cnc[nH]3)cc2c(Nc2ccc(F)c(Cl)c2)c1C#N

SMILES: Cc1ncn(CCN2CCOCC2)c1CNc1ccc2ncc(C#N)c(Nc3ccc(F)c(Cl)c3)c2c1
inhibitory concentration (Monocyte [9]): 0.7 µM | inhibitory concentration (Blood): 13.2 µM

IC50 [1]: 140 nM
SMILES: N#Cc1cnc2cnc(NCc3ccccc3)cc2c1Nc1ccc(F)c(Cl)c1

IC50 [1]: > 10000 nM
SMILES: N#Cc1cnc2ccc(CCc3ccccc3)cc2c1Nc1ccc(F)c(Cl)c1

SMILES: Cc1[nH]cnc1CNc1ccc2ncc(C#N)c(Nc3ccc(F)c(Cl)c3)c2c1
inhibitory concentration (Monocyte [9]): 0.4 µM | inhibitory concentration (Blood): 7.9 µM | inhibition in vivo at 50 mg/kg (Mus musculus [14]): 84% | IC50 [1]: 3 nM

IC50 [1]: 90 nM
SMILES: N#Cc1cnc2ccc(NCc3ccccn3)cc2c1Nc1ccc(F)c(Cl)c1

IC50 [1]: 640 nM
SMILES: CCc1ncc(CNc2ccc3ncc(C#N)c(Nc4ccc(F)c(Cl)c4)c3c2)[nH]1

IC50 [1]: > 40000 nM
SMILES: N#Cc1cnc2ccc(Nc3ccccc3)cc2c1Nc1ccc(F)c(Cl)c1

IC50 [1]: 30000 nM
SMILES: N#Cc1cnc2ccc(NCC3CCCN3)cc2c1Nc1ccc(F)c(Cl)c1 (stereo not drawn)
